# Assay results: PubChem BioAssay AID1963422 (Molecular Pharmacology Branch, DTP, NCI, 2024)
# System: 463943-066-T-J2-PDC complex spheroid growth
# Test: Anticancer human tumor 463943-066-T-J2-PDC patient-derived colon adenocarcinoma cell line growth inhibition [Asc]
# Conditions: for IC50: curve of first compound; for viability, T/C: stronger effect = lower value
# Outline: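 Tumor cells were grown as complex spheroids with human endothelial cells (HUVEC) and human mesenchymal stem cells as stroma. Agents were tested alone and in combination, in half-log steps down from the clinical Cmax, or from 10 microM where Cmax was unknown.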
# [1] = second compound 0.0316 µM, first compound 0.0316 µM
# [2] = second compound 0.0316 µM, first compound 0.1 µM
# [3] = second compound 0.0316 µM, first compound 0.316 µM
# [4] = second compound 0.0316 µM, first compound 1 µM
# [5] = second compound 0.0316 µM, first compound 3.16 µM
# [6] = second compound 0.0316 µM, first compound 10 µM
# [7] = second compound 0.1 µM, first compound 0.0316 µM
# [8] = second compound 0.1 µM, first compound 0.1 µM
# [9] = second compound 0.1 µM, first compound 0.316 µM
# [10] = second compound 0.1 µM, first compound 1 µM
# [11] = second compound 0.1 µM, first compound 3.16 µM
# [12] = second compound 0.1 µM, first compound 10 µM
# [13] = second compound 0.316 µM, first compound 0.0316 µM
# [14] = second compound 0.316 µM, first compound 0.1 µM
# [15] = second compound 0.316 µM, first compound 0.316 µM
# [16] = second compound 0.316 µM, first compound 1 µM
# [17] = second compound 0.316 µM, first compound 3.16 µM
# [18] = second compound 0.316 µM, first compound 10 µM
# [19] = second compound 1 µM, first compound 0.0316 µM
# [20] = second compound 1 µM, first compound 0.1 µM
# [21] = second compound 1 µM, first compound 0.316 µM
# [22] = second compound 1 µM, first compound 1 µM
# [23] = second compound 1 µM, first compound 3.16 µM
# [24] = second compound 1 µM, first compound 10 µM
# [25] = second compound 3.16 µM, first compound 0.0316 µM
# [26] = second compound 3.16 µM, first compound 0.1 µM
# [27] = second compound 3.16 µM, first compound 0.316 µM
# [28] = second compound 3.16 µM, first compound 1 µM
# [29] = second compound 3.16 µM, first compound 3.16 µM
# [30] = second compound 3.16 µM, first compound 10 µM
# [31] = second compound 10 µM, first compound 0.0316 µM
# [32] = second compound 10 µM, first compound 0.1 µM
# [33] = second compound 10 µM, first compound 0.316 µM
# [34] = second compound 10 µM, first compound 1 µM
# [35] = second compound 10 µM, first compound 3.16 µM
# [36] = second compound 10 µM, first compound 10 µM
# 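Further: compound exposure lasted 7 days.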
# 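Wherever viability, T/C is given: 100% = DMSO vehicle control wells.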
structure (smiles),measurement,setting,value
C=C(F)C(=O)N1CCN(c2nc(OCC3CCCN3C)nc3c2CCN(c2cccc4cccc(Cl)c24)C3)CC1CC#N (stereo unspecified) + Cc1c(S(C)(=O)=O)c(-c2cc(F)cc(N3CCN(c4ccc(NS(=O)(=O)c5ccc(NC(CCN6CCC(C(=O)OCCCP(=O)(O)O)CC6)CSc6ccccc6)c(S(=O)(=O)C(F)(F)F)c5)cc4)CC3)c2)c(-c2ccc(Cl)cc2)n1C(C)C,IC50,second compound 0.0316 µM,5.64 µM
same,IC50,second compound 0.1 µM,4.89 µM
same,IC50,second compound 0.316 µM,3.88 µM
same,IC50,second compound 1 µM,2.3 µM
same,IC50,second compound 3.16 µM,1.17 µM
same,IC50,second compound 10 µM,< 0.0316 µM
same,"viability, T/C",[1],92.4%
same,"viability, T/C",[2],95.5%
same,"viability, T/C",[3],95.9%
same,"viability, T/C",[4],106%
same,"viability, T/C",[5],93.1%
same,"viability, T/C",[6],7.35%
same,"viability, T/C",[7],98.2%
same,"viability, T/C",[8],93.5%
same,"viability, T/C",[9],90.8%
same,"viability, T/C",[10],98.4%
same,"viability, T/C",[11],79.5%
same,"viability, T/C",[12],1.47%
same,"viability, T/C",[13],92%
same,"viability, T/C",[14],85.7%
same,"viability, T/C",[15],87%
same,"viability, T/C",[16],85.7%
same,"viability, T/C",[17],60.8%
same,"viability, T/C",[18],0.26%
same,"viability, T/C",[19],80.3%
same,"viability, T/C",[20],80.4%
same,"viability, T/C",[21],72.5%
same,"viability, T/C",[22],72.4%
same,"viability, T/C",[23],41.8%
same,"viability, T/C",[24],0.2%
same,"viability, T/C",[25],62.4%
same,"viability, T/C",[26],58.4%
same,"viability, T/C",[27],56.4%
same,"viability, T/C",[28],54.5%
same,"viability, T/C",[29],23.1%
same,"viability, T/C",[30],0.22%
same,"viability, T/C",[31],46.1%
same,"viability, T/C",[32],47.7%
same,"viability, T/C",[33],47.4%
same,"viability, T/C",[34],41.7%
same,"viability, T/C",[35],16.4%
same,"viability, T/C",[36],0.26%
C=CC(=O)N1CCN(c2nc(=O)n(-c3c(C)ccnc3C(C)C)c3nc(-c4c(O)cccc4F)c(F)cc23)C(C)C1 (stereo unspecified) + Cc1c(S(C)(=O)=O)c(-c2cc(F)cc(N3CCN(c4ccc(NS(=O)(=O)c5ccc(NC(CCN6CCC(C(=O)OCCCP(=O)(O)O)CC6)CSc6ccccc6)c(S(=O)(=O)C(F)(F)F)c5)cc4)CC3)c2)c(-c2ccc(Cl)cc2)n1C(C)C,IC50,second compound 0.0316 µM,> 10 µM
same,IC50,second compound 0.1 µM,> 10 µM
same,IC50,second compound 0.316 µM,> 10 µM
same,IC50,second compound 1 µM,> 10 µM
same,IC50,second compound 3.16 µM,> 10 µM
same,IC50,second compound 10 µM,7.14 µM
same,"viability, T/C",[1],84.9%
same,"viability, T/C",[2],92.3%
same,"viability, T/C",[3],91%
same,"viability, T/C",[4],96.1%
same,"viability, T/C",[5],100%
same,"viability, T/C",[6],78.3%
same,"viability, T/C",[7],95%
same,"viability, T/C",[8],89.7%
same,"viability, T/C",[9],91.4%
same,"viability, T/C",[10],93.6%
same,"viability, T/C",[11],91.9%
same,"viability, T/C",[12],84.4%
same,"viability, T/C",[13],83.8%
same,"viability, T/C",[14],90%
same,"viability, T/C",[15],85.3%
same,"viability, T/C",[16],87.3%
same,"viability, T/C",[17],86.8%
same,"viability, T/C",[18],83%
same,"viability, T/C",[19],74%
same,"viability, T/C",[20],75.6%
same,"viability, T/C",[21],75.3%
same,"viability, T/C",[22],77%
same,"viability, T/C",[23],72%
same,"viability, T/C",[24],64.4%
same,"viability, T/C",[25],57.8%
same,"viability, T/C",[26],59.4%
same,"viability, T/C",[27],60.1%
same,"viability, T/C",[28],65%
same,"viability, T/C",[29],66%
same,"viability, T/C",[30],54.2%
same,"viability, T/C",[31],51.5%
same,"viability, T/C",[32],48.2%
same,"viability, T/C",[33],52.9%
same,"viability, T/C",[34],50.6%
same,"viability, T/C",[35],52.1%
same,"viability, T/C",[36],47.9%
CCN1C(C(=O)NC23CCC(C(=O)O)(CC2)CC3)C(c2cccc(Cl)c2F)C2(C(=O)Nc3cc(Cl)ccc32)C12CCCCC2 (stereo unspecified) + Cc1c(S(C)(=O)=O)c(-c2cc(F)cc(N3CCN(c4ccc(NS(=O)(=O)c5ccc(NC(CCN6CCC(C(=O)OCCCP(=O)(O)O)CC6)CSc6ccccc6)c(S(=O)(=O)C(F)(F)F)c5)cc4)CC3)c2)c(-c2ccc(Cl)cc2)n1C(C)C,IC50,second compound 0.0316 µM,> 3 µM
same,IC50,second compound 0.1 µM,> 3 µM
same,IC50,second compound 0.316 µM,> 3 µM
same,IC50,second compound 1 µM,> 3 µM
same,IC50,second compound 3.16 µM,0.14 µM
same,IC50,second compound 10 µM,< 0.00949 µM
same,"viability, T/C","second compound 0.0316 µM, first compound 0.00949 µM",90.4%
same,"viability, T/C","second compound 0.0316 µM, first compound 0.03 µM",92.3%
same,"viability, T/C","second compound 0.0316 µM, first compound 0.0949 µM",89.3%
same,"viability, T/C","second compound 0.0316 µM, first compound 0.3 µM",76.5%
same,"viability, T/C","second compound 0.0316 µM, first compound 0.949 µM",70.2%
same,"viability, T/C","second compound 0.0316 µM, first compound 3 µM",61.8%
same,"viability, T/C","second compound 0.1 µM, first compound 0.00949 µM",88.9%
same,"viability, T/C","second compound 0.1 µM, first compound 0.03 µM",83.2%
same,"viability, T/C","second compound 0.1 µM, first compound 0.0949 µM",85.9%
same,"viability, T/C","second compound 0.1 µM, first compound 0.3 µM",73.3%
same,"viability, T/C","second compound 0.1 µM, first compound 0.949 µM",71.1%
same,"viability, T/C","second compound 0.1 µM, first compound 3 µM",60.8%
same,"viability, T/C","second compound 0.316 µM, first compound 0.00949 µM",80.6%
same,"viability, T/C","second compound 0.316 µM, first compound 0.03 µM",92.2%
same,"viability, T/C","second compound 0.316 µM, first compound 0.0949 µM",77.6%
same,"viability, T/C","second compound 0.316 µM, first compound 0.3 µM",71.4%
same,"viability, T/C","second compound 0.316 µM, first compound 0.949 µM",64.7%
same,"viability, T/C","second compound 0.316 µM, first compound 3 µM",57.2%
same,"viability, T/C","second compound 1 µM, first compound 0.00949 µM",70.1%
same,"viability, T/C","second compound 1 µM, first compound 0.03 µM",70.8%
same,"viability, T/C","second compound 1 µM, first compound 0.0949 µM",62.9%
same,"viability, T/C","second compound 1 µM, first compound 0.3 µM",58.4%
same,"viability, T/C","second compound 1 µM, first compound 0.949 µM",62%
same,"viability, T/C","second compound 1 µM, first compound 3 µM",51.2%
same,"viability, T/C","second compound 3.16 µM, first compound 0.00949 µM",55.8%
same,"viability, T/C","second compound 3.16 µM, first compound 0.03 µM",54.5%
same,"viability, T/C","second compound 3.16 µM, first compound 0.0949 µM",49.3%
same,"viability, T/C","second compound 3.16 µM, first compound 0.3 µM",48.2%
same,"viability, T/C","second compound 3.16 µM, first compound 0.949 µM",45.5%
same,"viability, T/C","second compound 3.16 µM, first compound 3 µM",39.4%
same,"viability, T/C","second compound 10 µM, first compound 0.00949 µM",46.7%
same,"viability, T/C","second compound 10 µM, first compound 0.03 µM",43.7%
same,"viability, T/C","second compound 10 µM, first compound 0.0949 µM",39.8%
same,"viability, T/C","second compound 10 µM, first compound 0.3 µM",34.8%
same,"viability, T/C","second compound 10 µM, first compound 0.949 µM",61.4%
same,"viability, T/C","second compound 10 µM, first compound 3 µM",34.5%
